Assay results from article PMC6582358, “Reversible ADP-ribosylation of RNA” (Nucleic Acids Research, 2019).

Assays:
Assay type in all cases: biochemical
[1] = biological target: T1, TRPT1 (Homo sapiens, UniProt Q86TN4); experiment: […]-NAD+ ADP-ribosylation of RNA, urea-PAGE autoradiography; details: acceptor 5'-phosphorylated ssRNA; 50 uM NAD+, 5 mM MgCl2, pH 7.6, 37 °C; labelled compound
T1 construct: codon-optimised synthetic gene, His tag, pET28a, E. coli Rosetta DE3, Ni and gel filtration
T1 sequence (Q86TN4 1-253): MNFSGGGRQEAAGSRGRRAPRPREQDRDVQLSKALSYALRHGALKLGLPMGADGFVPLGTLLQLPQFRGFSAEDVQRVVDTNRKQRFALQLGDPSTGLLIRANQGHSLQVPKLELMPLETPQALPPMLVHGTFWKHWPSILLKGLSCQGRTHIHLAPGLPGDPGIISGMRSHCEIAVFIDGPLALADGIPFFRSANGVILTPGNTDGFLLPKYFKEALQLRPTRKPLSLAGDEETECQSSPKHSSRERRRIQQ

[2] = biological target: T2, PARP10 cat (Homo sapiens, UniProt Q53GL7); experiment: as above; details: acceptor 5'-phosphorylated ssRNA; 50 uM NAD+, 5 mM MgCl2, pH 7.6, 37 °C; labelled compound
T2 construct: catalytic domain (818-1025), GST tag (pGEX-4T1), E. coli Rosetta DE3, gel filtration
T2 sequence (Q53GL7 818-1025): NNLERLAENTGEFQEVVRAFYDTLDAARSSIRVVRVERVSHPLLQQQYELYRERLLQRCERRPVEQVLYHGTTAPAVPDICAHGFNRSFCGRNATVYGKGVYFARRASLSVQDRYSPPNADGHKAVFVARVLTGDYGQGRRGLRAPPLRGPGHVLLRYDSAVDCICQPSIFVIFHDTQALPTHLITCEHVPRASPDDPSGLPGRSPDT

[3] = biological target: T3, PARP10 FL (Homo sapiens, UniProt Q53GL7); experiment: as above; details: acceptor 5'-phosphorylated ssRNA; 50 uM NAD+, 5 mM MgCl2, pH 7.6, 37 °C; labelled compound
T3 construct: full length, His6-SUMO-TEV vector, E. coli Rosetta DE3, Ni, heparin and gel filtration
T3 sequence (Q53GL7 1-1025): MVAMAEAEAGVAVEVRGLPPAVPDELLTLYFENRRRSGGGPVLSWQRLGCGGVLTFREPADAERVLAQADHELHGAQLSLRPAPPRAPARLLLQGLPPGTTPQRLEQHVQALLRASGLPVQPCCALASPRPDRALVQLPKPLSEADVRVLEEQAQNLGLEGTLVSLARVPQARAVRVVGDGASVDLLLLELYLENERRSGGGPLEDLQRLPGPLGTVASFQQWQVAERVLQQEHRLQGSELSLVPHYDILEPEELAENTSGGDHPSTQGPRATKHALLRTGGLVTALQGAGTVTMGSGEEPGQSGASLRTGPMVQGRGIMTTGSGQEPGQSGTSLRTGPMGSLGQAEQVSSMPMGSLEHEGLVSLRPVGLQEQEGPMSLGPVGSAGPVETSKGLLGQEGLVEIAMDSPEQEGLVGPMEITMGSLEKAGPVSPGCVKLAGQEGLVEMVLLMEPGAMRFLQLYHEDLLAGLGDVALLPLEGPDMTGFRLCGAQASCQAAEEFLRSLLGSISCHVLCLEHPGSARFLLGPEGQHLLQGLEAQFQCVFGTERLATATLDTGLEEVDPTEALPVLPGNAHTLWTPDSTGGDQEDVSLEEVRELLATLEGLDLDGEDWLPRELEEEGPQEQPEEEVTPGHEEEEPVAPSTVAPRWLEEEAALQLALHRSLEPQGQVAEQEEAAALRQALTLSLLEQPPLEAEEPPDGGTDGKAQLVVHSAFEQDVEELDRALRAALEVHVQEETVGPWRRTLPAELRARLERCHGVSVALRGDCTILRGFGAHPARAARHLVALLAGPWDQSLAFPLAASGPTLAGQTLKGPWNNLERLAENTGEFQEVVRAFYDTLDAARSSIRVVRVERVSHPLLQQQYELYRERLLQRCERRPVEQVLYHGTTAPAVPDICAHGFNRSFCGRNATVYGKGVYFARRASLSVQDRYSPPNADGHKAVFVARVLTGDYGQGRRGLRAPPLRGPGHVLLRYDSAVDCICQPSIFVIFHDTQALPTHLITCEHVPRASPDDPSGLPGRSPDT

[4] = biological target: T4, PARP3 FL (Homo sapiens, UniProt Q9Y6F1); experiment: […]-NAD+ ADP-ribosylation of DNA, urea-PAGE autoradiography; details: acceptor DNA ends; pH 7.6, 37 °C; labelled compound
T4 construct: full length, His tag (pDEST17)
T4 sequence (Q9Y6F1 1-533): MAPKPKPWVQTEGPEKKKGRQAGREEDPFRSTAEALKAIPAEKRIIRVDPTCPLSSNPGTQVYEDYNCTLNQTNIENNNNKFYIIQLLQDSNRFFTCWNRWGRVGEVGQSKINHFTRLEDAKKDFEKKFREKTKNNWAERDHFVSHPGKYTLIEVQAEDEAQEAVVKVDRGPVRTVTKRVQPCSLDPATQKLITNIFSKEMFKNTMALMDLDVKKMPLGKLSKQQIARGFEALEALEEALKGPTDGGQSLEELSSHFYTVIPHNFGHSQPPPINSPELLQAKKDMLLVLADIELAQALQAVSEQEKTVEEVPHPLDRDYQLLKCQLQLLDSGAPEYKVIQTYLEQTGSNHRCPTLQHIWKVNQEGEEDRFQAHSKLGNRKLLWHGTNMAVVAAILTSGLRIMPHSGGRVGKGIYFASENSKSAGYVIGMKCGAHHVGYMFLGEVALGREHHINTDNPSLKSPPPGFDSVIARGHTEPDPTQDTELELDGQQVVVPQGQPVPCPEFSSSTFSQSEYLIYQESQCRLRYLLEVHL

NC(=O)c1ccc[n+]([C@@H]2O[C@H](COP(=O)(O)OP(=O)(O)OC[C@H]3O[C@@H](n4cnc5c(N)ncnc54)[C@H](O)[C@@H]3O)[C@@H](O)[C@H]2O)c1 [NAD+]
32P-NAD+ ADP-ribosylation of RNA, urea-PAGE autoradiography [1]: TRPT1 based RNA modification is time and NAD^+ concentration dependent | 32P-NAD+ ADP-ribosylation of RNA, urea-PAGE autoradiography [2]: RNA ADP-ribosylation activity of PARP10 is time and NAD^+ concentration dependent | 32P-NAD+ ADP-ribosylation of RNA, urea-PAGE autoradiography [3]: PARP10 full length can also ADP-ribosylate phosphorylated RNA ends | 32P-NAD+ ADP-ribosylation of DNA, urea-PAGE autoradiography [4]: PARP3 could only ADP-ribosylate DNA ends
